Read-outs that look alike come from different tables or passages of the source.
What was measured:
[1] = biological target: eukaryotic cytoplasmic ribosome; assay: Eukaryotic in vitro translation inhibition, TNT T7 Quick Coupled Transcription/Translation System with luciferase plasmid; format: biochemical; conditions: for IC50: read-out: Translation Inhibition IC50^Euk; for more specific to the eukaryotic ribosome than structurally related compound: NB156 vs NB74, NB157 vs NB124
Description: (§1) Prokaryotic in vitro translation inhibition by the different aminoglycosides was quantified in coupled transcription/translation assays by using E. coli S30 extract for circular DNA with the pBESTluc plasmid (Promega), according to the manufacturer's protocol. Translation reactions (25 μL) that contained variable concentrations of the tested aminoglycoside were incubated at 37° C. for 60 minutes, cooled on ice for 5 minutes, and diluted with a dilution reagent (tris-phosphate buffer (25 mM, pH 7.8), DTT (2 mM), 1,2-diaminocyclohexanetetraacetate (2 mM), glycerol (10%), Triton X-100 (1%) and BSA (1 mg mL-1)) into 96-well plates. Eukaryotic in vitro translation inhibition was quantified by use of TNT® T7 Quick Coupled Transcription/Translation System with a luciferase T7 control DNA plasmid (Promega), according to the manufacturer protocol. Translation reactions (25 μL) containing variable concentrations of the tested aminoglycoside were incubated at 30° C. for 60 minutes, cooled on ice for 5 minutes, diluted with the dilution reagent and transferred into 96-well plates. In both prokaryotic and eukaryotic systems the luminescence was measured immediately after the addition of the Luciferase Assay Reagent (50 μL; Promega), and the light emission was recorded with a FLx800 Fluorescence Microplate Reader (Biotek). The half-maximal inhibition concentration (IC50) values were obtained from fitting concentration-response curves to the data of at least two independent experiments by using Grafit 5 software.
(§2) In all biological tests, all AGs were in their sulfate salt forms, and the concentrations refer to the free amine form of each AG. The eukaryotic and prokaryotic half-maximal-inhibition values (IC50^Euk and IC50^Pro) were quantified in coupled transcription/translation assays by using active luciferase detection as previously described. Minimal inhibitory concentration (MIC) values were determined by using the double-microdilution method.

[2] = system: R3X nonsense mutation construct representing USH1 (PCDH15); assay: Dual luciferase in vitro readthrough assay, R3X construct; format: biochemical; conditions: FIG. 3
Description: (§3) DNA fragments derived from PCDH15, CFTR, and IDUA cDNAs, including the tested nonsense mutation or the corresponding wild type (wt) codon, and four to six upstream and downstream flanking codons were created by annealing the following pairs of complementary oligonucleotides:
(§4) Fragments were inserted in frame into the polylinker of the p2Luc plasmid between either BamHI and SacI (p.R3X and p.R245X) or SalI and SacI (all the rest) restriction sites. For the in vitro readthrough assays, the obtained plasmids, with addition of the tested aminoglycosides were transcribed and translated using the TNT Reticulocyte Lysate Quick Coupled Transcription/Translation System. Luciferase activity was determined after 90 minutes of incubation at 30° C., using the Dual Luciferase Reporter Assay System (Promega™).
FIG. 3 presents comparative plots showing in vitro stop codon suppression levels induced by Compound 1 (-▪-), NB153 (-▴-), and NB155 (-Δ-) in R3X nonsense mutation construct representing USH1 genetic disease.

[3] = system: prokaryotic ribosome (E. coli S30 extract); assay: Prokaryotic in vitro translation inhibition, E. coli S30 extract with pBESTluc plasmid; format: biochemical; conditions: read-out: Translation Inhibition IC50^Pro
Description: as §1, §2

E. coli R477-100 = assay: Antibacterial activity, MIC by double-microdilution method; format: cell-based; conditions: for MIC: Escherichia coli, R477100, read-out: Antibacterial activity MIC E. coli R477/100
Description: (§5) Comparative antibacterial activities were determined in two representative strains of Gram-negative (E. coli R477-100) and Gram-positive (B. subtilis ATCC-6633) bacteria, by measuring the MIC values using the double-microdilution method according to the National Committee for Clinical Laboratory Standards (NCCLS) (NCCLS. National Committee for Clinical Laboratory Standards, Performance standards for antimicrobial susceptibility testing. Fifth information supplement: Approved Standard M100-S5; Villanova, Pa.: NCCLS, 1994.).
as §2

[4] = system: premature termination codon (PTC); assay: Comparative in-vitro PTC suppression activity assays (Example 3); format: biochemical; conditions: preliminary
Description: as §4

[5] = system: stop codon mutations of Table 3; assay: Dual-luciferase readthrough assay, broad arsenal of stop codon mutations; format: biochemical; conditions: all tested mutations
Description: In these assays, the readthrough of a broad arsenal of stop codon mutations in the presence of NB156 and NB157 was tested. Briefly, NB156 and NB157 were tested at escalating doses for their read-through properties towards the nonsense mutation using the wild-type (WT) sequence of each specific complementary DNA (cDNA) as a control, and plasmids bearing the stop codon mutations in a dual-luciferase assay. DNA fragments derived from different cDNAs were prepared using either the WT or nonsense mutation, in which the sequences from the mutant or wild-type codon were surrounded by four to six upstream and downstream flanking codons. The cDNA sequence was inserted into the polylinker of the p2luc plasmid for each sequence.

[6] = system: nonsense constructs R3X (USH1), R245X (USH1), Q70X (HS), G542X (CF); assay: Dual luciferase in vitro readthrough assay, four nonsense constructs; format: biochemical; conditions: all mutations tested, FIGS. 4A-D; for readthrough activity relative to structurally related compound lacking 7′-hydroxyl: NB156 vs NB74, NB157 vs NB124
Description: as §3, §4
Activity was tested using a collection of dual-luciferase reporter plasmids, containing different sequence contests around premature stop codons derived from the PCDH15, CFTR, and IDUA genes that underline USH1, CF, and MPS I-H, respectively. The exemplified nonsense reporters were R3X and R245X for USH1, G542X for CF, and Q70X for MPS I-H.
The results are averages of at least three independent experiments.

human fibroblast cells = conditions: cited from earlier work
B. subtilis ATCC-6633 = assay: Antibacterial activity, MIC by double-microdilution method; format: cell-based; conditions: Table 2
Description: as §5, §2

[7] = Table 2, sulfate salts, concentrations refer to free amine form

| Molecule | IC50 [1, 7] [µM] | IC50 [3, 7] [µM] | IC50 ([1]; Table 4) [µM] | IC50 ([3]; Table 4) [µM] | also measured |
| --- | --- | --- | --- | --- | --- |
| N[C@H]1[C@@H](O[C@H]2[C@H](O)[C@@H](O)[C@H](N)C[C@@H]2N)O[C@H]([C@H](O)CO)[C@@H](O)[C@@H]1O [NB153, (2R,3S,4R,5R,6S)-5-amino-6-(((1R,2R,3S,4R,6S)-4,6-diamino-2,3-dihydroxycyclohexyl)oxy)-2-((R)-1,2-dihydroxyethyl)tetrahydro-2H-pyran-3,4-diol] | 120 ± 14.5 | 11 ± 1.2 | – | – | in vitro readthrough activity relative to Compound 1 [2]: dramatically increases |
| CC(O)C1O[C@H](O[C@@H]2C(N)C[C@@H](N)C(O)C2O[C@@H]2O[C@H]([C@H](C)N)C(O)C2O)C(N)C(O)[C@@H]1O (single isomer, unassigned) [NB124, reference compound] | 1.5 ± 0.1 | 1.1 ± 0.2 | – | – | MIC (E. coli R477-100): 1270 µM |
| N[C@H]1[C@@H](O[C@H]2[C@H](O)[C@@H](O)[C@H](N)C[C@@H]2N)OC(CO)=C[C@@H]1O [NB154, (1S,2R,3R,4S,6R)-4,6-diamino-3-(((2S,3R,4S)-3-amino-4-hydroxy-6-(hydroxymethyl)-3,4-dihydro-2H-pyran-2-yl)oxy)cyclohexane-1,2-diol] | – | – | 376 ± 38.6 | 82.3 ± 11.9 | readthrough activity relative to NB82 [4]: more or less similar activity; readthrough activity relative to paromamine [4]: ~3.5 fold |
| C[C@H](N)[C@H]1O[C@@H](OC2C(O)[C@H](N)CC(N)[C@H]2O[C@H]2OC(CO)[C@@H](O)C(O)C2N)C(O)C1O (stereo partly shown) [NB118, reference compound] | – | – | 15.5 ± 1.3 | 1.9 ± 0.2 | – |
| NC[C@H]1O[C@@H](O[C@@H]2C(O)[C@H](N)CC(N)[C@H]2O[C@H]2OC(CO)=CC(O)[C@@H]2N)C(O)[C@H]1O (stereo partly shown) [NB158] | – | – | 70.7 ± 2.4 | 36.4 ± 3.5 | MIC (E. coli R477-100): > 192 µg/mL |
| NC[C@H]1O[C@@H](O[C@@H]2[C@@H](O)[C@H](N)C[C@H](N)[C@H]2O[C@H]2O[C@H]([C@H](O)CO)[C@@H](O)[C@H](O)[C@H]2N)[C@@H](O)[C@H]1O [NB156, (2R,3S,4R,5R,6S)-5-amino-6-(((1R,2R,3S,4R,6S)-4,6-diamino-2-(((2S,3S,4R,5R)-5-(aminomethyl)-3,4-dihydroxytetrahydrofuran-2-yl)oxy)-3-hydroxycyclohexyl)oxy)-2-((R)-1,2-dihydroxyethyl)tetrahydro-2H-pyran-3,4-diol] | 7.5 ± 0.5 | 0.7 ± 0.1 | – | – | stop-codon mutation readthrough activity compared to NB74 [5]: more active than NB74; readthrough activity relative to gentamicin [6]: significantly better; readthrough activity relative to structurally related compound lacking 7′-hydroxyl [6]: substantially better; more specific to the eukaryotic ribosome than structurally related compound [1]: 1.85 fold |
| N[C@H]1[C@@H](O[C@H]2[C@H](O)[C@@H](O)[C@H](N)C[C@@H]2N)O[C@H](CO)[C@@H](O)[C@@H]1O [Paro., paromamine, reference compound] | – | – | 760 ± 79 | 14 ± 1.2 | – |
| NC[C@H]1O[C@@H](OC2C(O)[C@H](N)CC(N)[C@H]2O[C@H]2OC(CO)[C@@H](O)C(O)C2N)C(O)C1O (stereo partly shown) [NB30, reference compound] | – | – | 31 ± 4 | 0.45 ± 0.03 | – |
| CN[C@@H]1[C@@H](O)[C@@H](O[C@@H]2[C@@H](O)[C@H](O[C@H]3O[C@H]([C@@H](C)O)[C@@H](O)[C@H](O)[C@H]3N)[C@@H](N)C[C@H]2N)OC[C@]1(C)O [Compound G418, geneticin] | – | – | – | – | LD50 (human fibroblast cells): 0.04 mg/mL |
| C[C@H](N)[C@H]1O[C@@H](O[C@@H]2C(O)[C@H](N)CC(N)[C@H]2O[C@H]2OC(CO)=CC(O)[C@@H]2N)C(O)[C@H]1O (stereo partly shown) [NB159] | – | – | 47.9 ± 3.3 | 134 ± 2.8 | MIC (E. coli R477-100): > 192 µg/mL |
| C[C@H](N)[C@H]1O[C@@H](O[C@@H]2[C@@H](O)[C@H](N)C[C@H](N)[C@H]2O[C@H]2O[C@H]([C@H](O)CO)[C@@H](O)[C@H](O)[C@H]2N)[C@@H](O)[C@H]1O [NB157, (2R,3S,4R,5R,6S)-5-amino-6-(((1R,2R,3S,4R,6S)-4,6-diamino-2-(((2S,3S,4R,5R)-5-((S)-1-aminoethyl)-3,4-dihydroxytetrahydrofuran-2-yl)oxy)-3-hydroxycyclohexyl)oxy)-2-((R)-1,2-dihydroxyethyl)tetrahydro-2H-pyran-3,4-diol] | 1.2 | – | – | – | readthrough activity relative to gentamicin [6]: significantly better; readthrough activity relative to structurally related compound lacking 7′-hydroxyl [6]: better; more specific to the eukaryotic ribosome than structurally related compound [1]: 1.25 fold |
| gentamicin [reference compound] | 62 | 0.03 | – | – | Antibacterial Activity MIC B. Subtilis ATCC6633 (B. subtilis ATCC-6633): <0.75 µM; Antibacterial Activity MIC E. Coli R 477/100 (E. coli R477-100; Table 2): 6 µM |
| N[C@H]1[C@@H](O[C@H]2[C@H](O)[C@@H](O)[C@H](N)C[C@@H]2N)O[C@H]([C@@H](O)CO)[C@@H](O)[C@@H]1O [NB155, (2R,3S,4R,5R,6S)-5-amino-6-(((1R,2R,3S,4R,6S)-4,6-diamino-2,3-dihydroxycyclohexyl)oxy)-2-((S)-1,2-dihydroxyethyl)tetrahydro-2H-pyran-3,4-diol] | 516 ± 15 | 91.9 ± 8.4 | – | – | in vitro readthrough activity relative to Compound 1 [2]: somewhat higher activity |

Source: US20190016746A1, “AMINOGLYCOSIDE DERIVATIVES AND USES THEREOF IN TREATING GENETIC DISORDERS” (Eloxx Pharmaceuticals Ltd., priority 2016, published 2019)
